{"source": "patent US9771618B2", "about": "“Methods for treating breast cancer” (Bioarray Genetics, Inc., priority 2009, dated 2017)", "origin": "cited, not measured here", "system": "locally advanced breast cancer", "conditions": "24 tumors of the Chang, et al. dataset (10 of 24); response assessed after neoadjuvant chemotherapy", "data": [{"molecule": "CC(=O)O[C@H]1C(=O)[C@@]2(C)[C@H]([C@H](OC(=O)c3ccccc3)[C@]3(O)C[C@H](OC(=O)[C@H](O)[C@@H](NC(=O)c4ccccc4)c4ccccc4)C(C)=C1C3(C)C)[C@]1(OC(C)=O)CO[C@@H]1C[C@@H]2O", "note": "[taxol, paclitaxel]", "values": [{"measurement": "overall taxol sensitive rate", "result": 41.7, "unit": "%"}]}]}
